In the test the test system is HepG2-A16-CD81EGFP cells. As to conditions: for IC50: read-out: Tox_IC50, HepG2 cytotoxicity.
Where [1] appears, read: 2nd round, maximal inhibition in dose series.
The mark [2] stands for this setting: sheet 2nd round, maximal inhibition in dose response.

Where two headings read alike, the source gives them in different places.

In the case of `CCCNC(=O)N1[C@H](C#N)[C@H](c2ccccc2-c2ccc(OC)cc2)[C@@H]1CO` [BRD-K19492647-001-01-0], the “Tox_max_inhibition (%)” value under setting [1] came out at 9%. Besides, the IC50 (2nd round, unit inferred) was greater than 10 µM.

As to `CC(C)(C)[S+]([O-])N1Cc2cc(C(=O)NCc3ccc4c(c3)OCO4)nc(-c3cccc(-c4cc5ccccc5o4)c3)c2[C@H]1CCO` (stereo partly drawn) [BRD-K19560511-001-03-3], the “Tox_max_inhibition (%)” value under setting [1] came to 12%. Further, where the note is “2nd round, unit inferred”, the IC50 was greater than 10 µM.

Turning to `COc1ccc2c3c(n(C)c2c1)[C@H](CO)N(Cc1ccc2c(c1)OCO2)CC31CN(C(=O)c2ccc3c(c2)OCO3)C1` [BRD-K24711160-001-01-3], where the note is “sheet 2nd round”, the IC50 is greater than 10 µM. Under setting [2], the “Tox_max_inhibition (%)” value amounted to 3%.

Take `O=C(Nc1cc(F)ccc1F)N1CCCCN2[C@H](CO)[C@H](c3ccc(C4=CCCCC4)cc3)[C@@H]2C1` [BRD-K26542939-001-01-0]: for the setting “sheet 2nd round”, the IC50 was greater than 10 µM. The “Tox_max_inhibition (%)” value under setting [2] came to 16%.

On to `COc1ccccc1S(=O)(=O)N(C)C[C@@H]1Oc2cc(/C=C/c3ccccc3)ccc2S(=O)(=O)N([C@H](C)CO)C[C@H]1C` [BRD-K26611181-001-01-8], for which the IC50 (sheet 2nd round) is greater than 10 µM. For the same compound, the “Tox_max_inhibition (%)” value under setting [2] was 33%.

As to `C[C@@H]1CCCCO[C@@H](CN(C)C(=O)Nc2cccc3ccccc23)[C@H](C)CN([C@@H](C)CO)C(=O)c2cc(NC(=O)CCC(F)(F)F)ccc2O1` [BRD-K26887637-001-01-4], the IC50 (sheet 2nd round) is greater than 10 µM. Also, the “Tox_max_inhibition (%)” value under setting [2] amounted to 11%.

Regarding `O=C(Cc1ccccc1)N1CC(=O)N2[C@H](CO)[C@H](c3ccc(C#CCc4ccccc4)cc3)[C@H]2C1` [BRD-K27191881-001-01-3], where the note is “sheet 2nd round”, the IC50 is greater than 10 µM. Further, under setting [2], the “Tox_max_inhibition (%)” value is 3.49%.

With `C[C@H]1CN([C@@H](C)CO)C(=O)c2cc(/C=C/c3ccccc3)cnc2O[C@@H]1CN(C)C(=O)C1CCCCC1` [BRD-K27989629-001-01-7], the IC50 (sheet 2nd round) is greater than 10 µM. Besides, the “Tox_max_inhibition (%)” value under setting [2] came out at 5%.

Take `CC(C)CC#Cc1ccc([C@@H]2[C@H]3CN(C(=O)Nc4ccccc4)CCCCN3[C@H]2CO)cc1` [BRD-K28504277-001-01-8]: under “sheet 2nd round”, the IC50 turned out to be 5.23 µM. Under setting [2], the “Tox_max_inhibition (%)” value is on record as 99%.

Regarding `COc1ccccc1NC(=O)Nc1ccc2c(c1)OC[C@@H](C)N(Cc1ccccc1Cl)C[C@@H](C)[C@H](OC)CN(C)C2=O` [BRD-K28918058-001-01-5], the IC50 (sheet 2nd round) is greater than 10 µM. Besides, under setting [2], the “Tox_max_inhibition (%)” value was determined as 13%.

`CCCNC(=O)N1[C@H](C#N)[C@H](c2ccccc2C2=CCCCC2)[C@@H]1CO` [BRD-K29207675-001-01-5]: the “Tox_max_inhibition (%)” value under setting [1] came to 12%. Also, under “2nd round, unit inferred”, the IC50 was greater than 10 µM.

For the compound `COc1ccc2c3c([nH]c2c1)[C@H](CO)N(C(C)=O)CC31CCN(C(=O)Nc2ccccc2F)CC1` [BRD-K30973842-001-02-5], the IC50 (sheet 2nd round) is greater than 10 µM. In addition, the “Tox_max_inhibition (%)” value under setting [2] was determined as 14%.

For `COc1ccc2c3c([nH]c2c1)[C@@H](CO)N(S(C)(=O)=O)CC31CCN(C(=O)Nc2ccccc2)CC1` [BRD-K31411295-001-01-9], where the note is “sheet "2nd round"”, the IC50 is greater than 10 µM and the “Tox_max_inhibition (%)” value worked out at 17%.

For the compound `CN1C(=O)c2cc(NC(=O)c3cccc(F)c3)ccc2OC[C@H]2O[C@H](CC(=O)NCC3CCCCC3)CC[C@H]21` [BRD-K31618614-001-02-1], where the note is “sheet "2nd round"”, the IC50 was greater than 10 µM and the “Tox_max_inhibition (%)” value is recorded as 27%.

Turning to `CCCNC(=O)N1[C@H](C#N)[C@H](c2ccc(C#Cc3cccc(F)c3)cc2)[C@H]1CO` [BRD-K31857539-001-01-9], for the setting “sheet "2nd round"”, the IC50 is greater than 10 µM and the “Tox_max_inhibition (%)” value was found to be 6%.

For the compound `O=C(C[C@H]1C[C@@H]2c3cc(NC(=O)c4ccc5c(c4)OCO5)ccc3O[C@@H]2[C@@H](CO)O1)NCc1ccc(Oc2ccccc2)cc1` [BRD-K34781184-001-01-6], the IC50 (sheet 2nd round) is greater than 10 µM. Under setting [2], the “Tox_max_inhibition (%)” value is recorded as 49%.

With `CCCNC(=O)N1[C@H](C#N)[C@@H](c2ccccc2-c2cccc(C)c2)[C@@H]1CO` [BRD-K35047119-001-01-1], under setting [1], the “Tox_max_inhibition (%)” value came to 7%. In addition, the IC50 (2nd round, unit inferred) is greater than 10 µM.

For `Cc1cc(C(=O)Nc2ccc3c(c2)C(=O)N(C)[C@@H]2CC[C@H](CC(=O)NCc4ccc(-c5ccccc5)cc4)O[C@@H]2CO3)no1` [BRD-K35841161-001-02-2], the IC50 (sheet 2nd round) is greater than 10 µM. Moreover, the “Tox_max_inhibition (%)” value under setting [2] amounted to 37%.

For `CCCC(=O)Nc1ccc2c(c1)OC[C@@H](C)N(Cc1cc(F)ccc1F)C[C@@H](C)[C@H](OC)CN(C)C2=O` [BRD-K36104357-001-01-0], for the setting “sheet "2nd round"”, the IC50 is greater than 10 µM and the “Tox_max_inhibition (%)” value is 18%.

As for `C[C@@H]1CN([C@H](C)CO)C(=O)c2cccc(NC(=O)c3ccc(-c4nccs4)cc3)c2O[C@@H]1CN(C)C(=O)Nc1ccc(C(F)(F)F)cc1` [BRD-K36757984-001-01-6], the IC50 (sheet 2nd round) was greater than 10 µM. Under setting [2], the “Tox_max_inhibition (%)” value came out at 2.49%.

Turning to `COc1ccccc1C#Cc1ccc([C@@H]2[C@@H](CO)N3CCCCN(C(=O)C4CCC4)C[C@H]23)cc1` [BRD-K36773541-001-01-9], the IC50 (sheet 2nd round) was greater than 10 µM. Also, the “Tox_max_inhibition (%)” value under setting [2] came to 6%.

`CN1C(=O)c2cc(NC(=O)c3ccc(C(F)(F)F)cc3)ccc2OC[C@H]2O[C@@H](CC(=O)NCc3ccc4c(c3)OCO4)CC[C@H]21` [BRD-K38534329-001-01-1]: the IC50 (sheet 2nd round) was 5.49 µM. In addition, under setting [2], the “Tox_max_inhibition (%)” value is listed as 57%.

Turning to `COc1ccc(C#Cc2ccc([C@@H]3[C@@H](CO)N4CCCCN(C(=O)Nc5cccc(F)c5)C[C@H]34)cc2)cc1` [BRD-K38867404-001-01-3], under “sheet 2nd round”, the IC50 is greater than 10 µM. Also, the “Tox_max_inhibition (%)” value under setting [2] was found to be 4%.

With `CO[C@@H]1CN(C)C(=O)c2ccc(NC(=O)c3ccc4c(c3)OCO4)cc2OC[C@@H](C)N(Cc2ccc3c(c2)OCO3)C[C@H]1C` [BRD-K38901607-001-01-5], where the note is “sheet "2nd round"”, the IC50 was greater than 10 µM and the “Tox_max_inhibition (%)” value amounted to 11%.

For the compound `C[C@@H]1CCCCO[C@H](CN(C)S(=O)(=O)c2ccc(F)cc2)[C@@H](C)CN([C@H](C)CO)C(=O)c2cc(N(C)C)ccc2O1` [BRD-K38977317-001-01-6], the IC50 (sheet 2nd round) is greater than 10 µM. In addition, the “Tox_max_inhibition (%)” value under setting [2] turned out to be 6%.

In the case of `Cc1ccc(S(=O)(=O)N(C)C[C@@H]2Oc3cc(C#CC4CCCC4)ccc3S(=O)(=O)N([C@@H](C)CO)C[C@H]2C)cc1` [BRD-K40215908-001-01-2], the “Tox_max_inhibition (%)” value under setting [1] was 34%. Moreover, the IC50 (2nd round, unit inferred) is greater than 10 µM.

As to `C[C@H]1CCCCO[C@H](CN(C)S(=O)(=O)c2ccccc2)[C@@H](C)CN([C@@H](C)CO)C(=O)c2cc(NC(=O)Nc3ccc4c(c3)OCO4)ccc2O1` [BRD-K40819914-001-01-3], under “sheet "2nd round"”, the IC50 was greater than 10 µM and the “Tox_max_inhibition (%)” value turned out to be 8.49%.

As to `O=C(Nc1ccccc1F)N1CCCCN2[C@H](C1)[C@@H](c1ccc(/C=C/c3ccccc3)cc1)[C@@H]2CO` [BRD-K41442469-001-01-2], under “sheet "2nd round"”, the IC50 was greater than 10 µM and the “Tox_max_inhibition (%)” value turned out to be 8.49%.

In the case of `O=C(Nc1ccccc1F)N1CCCCN2[C@H](C1)[C@H](c1ccc(/C=C/c3ccccc3)cc1)[C@@H]2CO` [BRD-K41549807-001-01-5], under “sheet "2nd round"”, the IC50 was greater than 10 µM and the “Tox_max_inhibition (%)” value amounted to 10%.

As for `COc1ccc(-c2ccc([C@H]3[C@@H](C#N)N(C(=O)NC(C)C)[C@@H]3CO)cc2)cc1` [BRD-K42750356-001-01-3], for the setting “sheet "2nd round"”, the IC50 is greater than 10 µM and the “Tox_max_inhibition (%)” value was 10%.

`O=C(Nc1cccc(F)c1)N1CCCCN2[C@H](CO)[C@@H](c3ccc(C#Cc4cccnc4)cc3)[C@@H]2C1` [BRD-K43947390-001-01-2]: the IC50 (sheet 2nd round) was greater than 10 µM. The “Tox_max_inhibition (%)” value under setting [2] came out at 5.34%.

Consider `C[C@H](CO)N1C[C@H](C)[C@H](CN(C)S(=O)(=O)c2ccccc2)OCCCC[C@H](C)Oc2ccc(NC(=O)Nc3ccc4c(c3)OCO4)cc2C1=O` [BRD-K43975729-001-01-5], for which, where the note is “sheet "2nd round"”, the IC50 was greater than 10 µM and the “Tox_max_inhibition (%)” value is 7%.

Turning to `O=C(C[C@H]1C[C@@H]2c3cc(NS(=O)(=O)c4ccc(F)cc4)ccc3O[C@@H]2[C@@H](CO)O1)N1CCc2ccccc2C1` [BRD-K45723650-001-01-0], where the note is “sheet "2nd round"”, the IC50 was greater than 10 µM and the “Tox_max_inhibition (%)” value was -1%.

As for `O=C(Nc1ccccc1F)N1CCCCN2[C@H](CO)[C@@H](c3ccc(/C=C/c4ccccc4)cc3)[C@H]2C1` [BRD-K46850496-001-01-8], where the note is “sheet 2nd round”, the IC50 was greater than 10 µM. Under setting [2], the “Tox_max_inhibition (%)” value worked out at 11%.

On to `COc1ccc2c3c([nH]c2c1)[C@H](CO)N(S(C)(=O)=O)CC31CCN(C(=O)Nc2ccccc2)CC1` [BRD-K47463456-001-01-7], for which, under “sheet "2nd round"”, the IC50 is greater than 10 µM and the “Tox_max_inhibition (%)” value came to 13%.

On to `CCC(=O)N1CC2(CCN(C(=O)Nc3ccccc3F)CC2)c2c([nH]c3cc(OC)ccc23)[C@@H]1CO` [BRD-K48749217-001-01-8], for which, under “sheet 2nd round”, the IC50 is greater than 10 µM. For the same compound, the “Tox_max_inhibition (%)” value under setting [2] was found to be 5.53%.

With `CCCC#Cc1ccc2c(c1)O[C@H](CN(C)Cc1ccccn1)[C@H](C)CN([C@@H](C)CO)S2(=O)=O` [BRD-K48766892-001-01-4], for the setting “sheet "2nd round"”, the IC50 was greater than 10 µM and the “Tox_max_inhibition (%)” value is listed as 7%.

With `CC(C)NC(=O)N1[C@H](C#N)[C@H](c2ccc(C#CC3CCCCC3)cc2)[C@@H]1CO` [BRD-K48864121-001-01-0], the “Tox_max_inhibition (%)” value under setting [1] is on record as 54%. Moreover, the IC50 (2nd round, unit inferred) is 9.68 µM.

On to `O=C(C[C@H]1CC[C@@H]2[C@H](COC[C@H](O)CN2Cc2ccc(C(F)(F)F)cc2)O1)N1CCc2ccccc2C1` [BRD-K49087010-001-01-1], for which, for the setting “sheet "2nd round"”, the IC50 turned out to be 9.12 µM and the “Tox_max_inhibition (%)” value is given as 60%.

Turning to `O=C(Nc1ccccc1F)N1CCCCN2[C@H](CO)[C@@H](c3ccc(/C=C/c4ccccc4)cc3)[C@@H]2C1` [BRD-K50964970-001-01-5], where the note is “sheet "2nd round"”, the IC50 was greater than 10 µM and the “Tox_max_inhibition (%)” value amounted to 8%.

`COc1ccc(C#Cc2ccc3c(c2)O[C@@H](CN(C)C(=O)Nc2cccc(OC)c2)[C@@H](C)CN([C@@H](C)CO)S3(=O)=O)cc1` [BRD-K52609475-001-01-4]: the “Tox_max_inhibition (%)” value under setting [1] was 6%. The IC50 (2nd round, unit inferred) was greater than 10 µM.

On to `CCCNC(=O)N1[C@H](C#N)[C@H](c2ccc(C3=CCCCC3)cc2)[C@@H]1CO` [BRD-K52785744-001-01-7], for which, where the note is “sheet "2nd round"”, the IC50 came to 7.93 µM and the “Tox_max_inhibition (%)” value is 50%.

The record behind these values is article PMC4890880 (ACS infectious diseases, 2016).
